Test results reported in patent publication US20240246941A1, “SUBSTITUTED 4-(3-AMINOPROP-1-YL)AMINOQUINOLINE ANALOGS AS MODULATORS OF MELANOMA-ASSOCIATED ANTIGEN 11 UBIQUITIN LIGASE” (ST. JUDE CHILDREN'S RESEARCH HOSPITAL, INC., priority 2020, published 2024).
pIC50: −log10 of the molar value. Like-named read-outs stand apart in the source and are kept apart here.

Molecular target: interaction between GST-MAGEA11 MHD and FAM-PCF11_4 peptide (MAGE-A11:PCF11) (Homo sapiens (Human), UniProt P43364)
Sequence (P43364 218-429): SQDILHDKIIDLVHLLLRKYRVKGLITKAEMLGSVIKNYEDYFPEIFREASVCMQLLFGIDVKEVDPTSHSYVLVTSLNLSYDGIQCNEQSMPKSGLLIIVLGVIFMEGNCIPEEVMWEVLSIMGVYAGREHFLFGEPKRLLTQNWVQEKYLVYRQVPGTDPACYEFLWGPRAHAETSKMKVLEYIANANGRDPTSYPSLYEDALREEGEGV
Experiment: TR-FRET dose response competition assay for disruption of MAGE-A11:PCF11 binding
How it was run: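 Competition TR-FRET at room temperature in 50 mM Tris pH 7.5, 20 mM MgCl2, 0.1 mg/ml BSA, 1 mM DTT: final 5 nM GST-MAGEA11 MHD, 5 nM Tb-anti-GST, 200 nM FAM-PCF11_4, 90 min. Ratio 520/490 nm converted to % inhibition; IC50 from sigmoidal fit.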

[1] = Dose response TR-FRET screening of nine scaffold groups against MAGE-A11:PCF11, read-out: consensus IC50
[2] = Table 8, representative compounds, read-out: TR-FRET IC50
[3] = Table 5, dose response TR-FRET screening of 59 quinoline compounds against MAGE-A11:PCF11, read-out: TR-FRET IC50
[4] = Table 6, 4-aminoquinoline compounds, read-out: TR-FRET, IC50
[5] = read-out: IC50 by TR-FRET for disrupting MAGE-A11:PCF11 interaction

| Structure (SMILES) | pIC50 [1] | pIC50 [2] | also measured |
| --- | --- | --- | --- |
| COc1cccc(CNCCCNc2ccnc3cc(C4CCCCC4)ccc23)c1O [SJ000311263-1] | 4.49 |  |  |
| COc1cccc(CNCCCNc2ccnc3cc(C4CCCCC4)ccc23)c1O [SJ000311263] |  | 4.49 |  |
| c1cc(CNCCCNc2ccnc3cc(C4CCCCC4)ccc23)c2c(c1)OCO2 [SJ000311264-1] | 4.62 |  |  |
| c1cc(CNCCCNc2ccnc3cc(C4CCCCC4)ccc23)c2c(c1)OCO2 [SJ000311264] |  | 4.62 |  |
| COc1ccc(F)cc1CNCCCNc1ccnc2cc(C3CCCCC3)ccc12 [SJ000311265-1] | 4.62 |  |  |
| COc1ccc(F)cc1CNCCCNc1ccnc2cc(C3CCCCC3)ccc12 [SJ000311265] |  | 4.62 |  |
| CCC(CC)c1ccc2c(NCCCNCc3cccc(OC)c3O)ccnc2c1 [SJ000311267-1] | 5.00 |  |  |
| CCC(CC)c1ccc2c(NCCCNCc3cccc(OC)c3O)ccnc2c1 [SJ000311267] |  | 5.00 |  |
| CCC(CC)c1ccc2c(NCCCNCc3cccc4c3OCO4)ccnc2c1 [SJ000311268-1] | 4.54 |  |  |
| CCC(CC)c1ccc2c(NCCCNCc3cccc4c3OCO4)ccnc2c1 [SJ000311268] |  | 4.54 |  |
| CCC(CC)c1ccc2c(NCCCNCc3cc(F)ccc3OC)ccnc2c1 [SJ000311269-1] | 4.37 |  |  |
| CCC(CC)c1ccc2c(NCCCNCc3cc(F)ccc3OC)ccnc2c1 [SJ000311269] |  | 4.37 |  |
| COc1cccc(CNCCCNc2ccnc3cc(-c4cc(C(F)(F)F)cc(C(F)(F)F)c4)ccc23)c1O [SJ000311271-1] | 4.16 |  |  |
| COc1cccc(CNCCCNc2ccnc3cc(-c4cc(C(F)(F)F)cc(C(F)(F)F)c4)ccc23)c1O [SJ000311271] |  | 4.16 |  |
| FC(F)(F)c1cc(-c2ccc3c(NCCCNCc4cccc5c4OCO5)ccnc3c2)cc(C(F)(F)F)c1 [SJ000311272-1] | 5.04 |  |  |
| FC(F)(F)c1cc(-c2ccc3c(NCCCNCc4cccc5c4OCO5)ccnc3c2)cc(C(F)(F)F)c1 [SJ000311272] |  | 5.04 |  |
| COc1ccc(F)cc1CNCCCNc1ccnc2cc(-c3cc(C(F)(F)F)cc(C(F)(F)F)c3)ccc12 [SJ000311273-1] | 5.11 |  |  |
| COc1ccc(F)cc1CNCCCNc1ccnc2cc(-c3cc(C(F)(F)F)cc(C(F)(F)F)c3)ccc12 [SJ000311273] |  | 5.11 |  |
| c1coc(CNCCCNc2ccnc3cc(-c4cccc5ccccc45)ccc23)c1 [SJ000311274-1] |  |  | pIC50 [3]: < 4.15 |
| COc1cccc(CNCCCNc2ccnc3cc(-c4cccc5ccccc45)ccc23)c1O [SJ000311275-1] | 4.80 |  |  |

| Structure (SMILES) | pIC50 [1] | pIC50 [2] | also measured |
| --- | --- | --- | --- |
| COc1cccc(CNCCCNc2ccnc3cc(C4=CC=CC5=CC=CC=CC54)ccc23)c1O (stereo not shown) [SJ000311275] |  | 4.80 |  |
| c1cc(CNCCCNc2ccnc3cc(-c4cccc5ccccc45)ccc23)c2c(c1)OCO2 [SJ000311276-1] | 4.51 |  |  |
| c1cc(CNCCCNc2ccnc3cc(-c4cccc5ccccc45)ccc23)c2c(c1)OCO2 [SJ000311276] |  | 4.51 |  |
| COc1ccc(F)cc1CNCCCNc1ccnc2cc(-c3cccc4ccccc34)ccc12 [SJ000311277-1] | 4.99 |  |  |
| COc1ccc(F)cc1CNCCCNc1ccnc2cc(-c3cccc4ccccc34)ccc12 [SJ000311277] |  | 4.99 |  |
| FC(F)(F)c1ccc(-c2ccc3c(NCCCNCc4ccco4)ccnc3c2)cc1 [SJ000311278-1] |  |  | pIC50 [3]: 4.64 |
| COc1cccc(CNCCCNc2ccnc3cc(-c4ccc(C(F)(F)F)cc4)ccc23)c1O [SJ000311279-1] | 5.02 |  |  |
| COc1cccc(CNCCCNc2ccnc3cc(-c4ccc(C(F)(F)F)cc4)ccc23)c1O [SJ000311279] |  | 5.02 |  |
| FC(F)(F)c1ccc(-c2ccc3c(NCCCNCc4cccc5c4OCO5)ccnc3c2)cc1 [SJ000311280-01] |  | 4.80 | pIC50 [4]: 5.39; pIC50 [5]: 5.39 |
| COc1ccc(F)cc1CNCCCNc1ccnc2cc(-c3ccc(C(F)(F)F)cc3)ccc12 [SJ000311281-01] |  | 4.87 | pIC50 [4]: 5.25; pIC50 [5]: 5.25 |
| COc1cccc(CNCCCNc2ccnc3cc(-c4ccccc4)ccc23)c1O [SJ000311283-1] | 4.62 |  |  |
| COc1cccc(CNCCCNc2ccnc3cc(-c4ccccc4)ccc23)c1O [SJ000311283] |  | 4.62 |  |
| c1ccc(-c2ccc3c(NCCCNCc4cccc5c4OCO5)ccnc3c2)cc1 [SJ000311284-01] |  | 4.65 | pIC50 [4]: 4.69; pIC50 [5]: 4.69 |
| COc1ccc(F)cc1CNCCCNc1ccnc2cc(-c3ccccc3)ccc12 [SJ000311285-1] | 4.55 |  |  |
| COc1ccc(F)cc1CNCCCNc1ccnc2cc(-c3ccccc3)ccc12 [SJ000311285] |  | 4.55 |  |
| COc1cccc(CNCCCNc2ccnc3cc(-c4ccc(C(C)(C)C)cc4)ccc23)c1O [SJ000311287-1] | 5.33 |  |  |
| COc1cccc(CNCCCNc2ccnc3cc(-c4ccc(C(C)(C)C)cc4)ccc23)c1O [SJ000311287] |  | 5.33 |  |
| CC(C)(C)c1ccc(-c2ccc3c(NCCCNCc4cccc5c4OCO5)ccnc3c2)cc1 [SJ000311288-1] | 5.16 |  |  |
| CC(C)(C)c1ccc(-c2ccc3c(NCCCNCc4cccc5c4OCO5)ccnc3c2)cc1 [SJ000311288] |  | 5.16 |  |
| COc1ccc(F)cc1CNCCCNc1ccnc2cc(-c3ccc(C(C)(C)C)cc3)ccc12 [SJ000311289-1] | 5.34 |  |  |
